ChEMBL document CHEMBL4382202, “1-(2-Hydroxybenzoyl)-thiosemicarbazides are promising antimicrobial agents targeting d-alanine-d-alanine ligase in bacterio” (Eur J Med Chem, 2018)
Converted amounts (≈) assume the structure as drawn.

Tests used:
[1] = system: Staphylococcus aureus; experiment: Antibacterial activity against hospital-acquired methicillin and vacomycin resistant Staphylococcus aureus VRS-1 after 18 to 24 hrs by microdilution assay; type: functional
[2] = system: Enterococcus faecalis; experiment: Antibacterial activity against vancomycin-resistant Enterococcus faecalis JH2-2::C1 after 18 to 24 hrs by microdilution assay; type: functional
[3] = system: Enterococcus faecalis; experiment: Antibacterial activity against vancomycin-resistant Enterococcus faecalis BM 4390 after 18 to 24 hrs by microdilution assay; type: functional
[4] = system: Staphylococcus aureus; experiment: Antibacterial activity against methicillin and vancomycin intermediate resistant Staphylococcus aureus MU50 after 18 to 24 hrs by microdilution assay; type: functional
[5] = system: Enterococcus faecalis; experiment: Antibacterial activity against vancomycin-resistant Enterococcus faecalis BM 4575 clinical isolate after 18 to 24 hrs by microdilution assay; type: functional
[6] = system: Staphylococcus aureus; experiment: Antibacterial activity against methicillin and linezolid resistant Staphylococcus aureus NRS 119 clinical isolate after 18 to 24 hrs by microdilution assay; type: functional
[7] = system: Enterococcus faecalis; experiment: Antibacterial activity against Enterococcus faecalis ATCC 29212 after 18 to 24 hrs by microdilution assay; type: functional
[8] = system: Staphylococcus aureus; experiment: Antibacterial activity against Staphylococcus aureus ATCC 25923 after 18 to 24 hrs by microdilution assay; type: functional
[9] = system: Staphylococcus aureus; experiment: Antibacterial activity against community-acquired methicillin and erythromycin resistant Staphylococcus aureus SA 325 after 18 to 24 hrs by microdilution assay; type: functional
[10] = system: Staphylococcus aureus; experiment: Antibacterial activity against hospital-acquired methicillin/ciprofloxacin/moxifloxacin resistant Staphylococcus aureus SA 481 after 18 to 24 hrs by microdilution assay; type: functional
[11] = target: T1, D-alanine--D-alanine ligase (Enterococcus faecalis (strain ATCC 700802 / V583), UniProt Q47758); experiment: Inhibition of Enterococcus faecalis JH2-2 C-terminal 6His-tagged DdlB expressed in Escherichia coli LMG194 preincubated for 30 mins followed by substrate addition and measured after 20 mins by Biomol Green reagent assay
T1 sequence (Q47758 whole entry): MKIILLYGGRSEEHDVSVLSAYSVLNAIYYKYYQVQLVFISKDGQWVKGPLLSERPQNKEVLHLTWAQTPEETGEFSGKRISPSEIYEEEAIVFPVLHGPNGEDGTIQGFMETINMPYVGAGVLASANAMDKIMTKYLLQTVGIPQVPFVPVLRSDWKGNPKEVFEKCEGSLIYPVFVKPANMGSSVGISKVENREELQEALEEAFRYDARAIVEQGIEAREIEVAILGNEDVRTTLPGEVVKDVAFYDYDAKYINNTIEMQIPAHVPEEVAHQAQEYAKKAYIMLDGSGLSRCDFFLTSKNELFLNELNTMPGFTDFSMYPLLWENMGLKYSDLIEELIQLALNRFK

Row | Compound | MIC [1] | MIC [2] | MIC [3] | MIC [4] | MIC [5] | MIC [6] | MIC [7] | MIC [8] | MIC [9] | MIC [10] | IC50 [11]
1 | COc1ccc(NC(=S)NNC(=O)c2ccccc2O)cc1 | > 100 µM | > 100 µM | > 100 µM | > 100 µM | > 100 µM | > 100 µM | > 400 µM | > 100 µM | > 100 µM | > 100 µM | 710 nM
2 | O=C(NNC(=S)Nc1cccc2ccccc12)c1ccccc1O | > 100 µM | > 100 µM | > 100 µM | > 100 µM | > 100 µM | > 100 µM | > 400 µM | > 100 µM | > 100 µM | > 100 µM | 520 nM
3 | O=C(NNC(=S)Nc1ccccc1)c1ccccc1O | > 100 µM | > 100 µM | > 100 µM | > 100 µM | > 100 µM | > 100 µM | > 400 µM | > 100 µM | > 100 µM | > 100 µM | 800 nM
4 | O=C(NNC(=S)Nc1ccccc1F)c1ccccc1 | – | – | – | – | – | – | > 400 µM | > 100 µM | – | – | –
5 | O=C(NNC(=O)c1ccccc1)Nc1ccc(Cl)c(Cl)c1 | – | – | – | – | – | – | > 100 µM | > 100 µM | – | – | –
6 | O=C(NNC(=S)Nc1ccccc1Cl)c1ccccc1 | – | – | – | – | – | – | > 400 µM | > 100 µM | – | – | –
7 | O=C(NNC(=S)Nc1ccccc1F)c1ccccc1O | > 100 µM | > 100 µM | > 100 µM | > 100 µM | > 100 µM | > 100 µM | 200 µM (≈ 61.1 µg/mL) | > 100 µM | > 100 µM | > 100 µM | 970 nM
8 | O=C(NNC(=S)Nc1ccc(Cl)cc1)c1ccccc1O | > 100 µM | > 100 µM | > 100 µM | > 100 µM | > 100 µM | > 100 µM | > 400 µM | > 100 µM | > 100 µM | > 100 µM | 830 nM
9 | COc1ccccc1NC(=S)NNC(=O)c1ccccc1O | > 100 µM | > 100 µM | > 100 µM | > 100 µM | > 100 µM | > 100 µM | > 400 µM | > 100 µM | > 100 µM | > 100 µM | 550 nM
10 | CN[C@H](CC(C)C)C(=O)N[C@H]1C(=O)N[C@@H](CC(N)=O)C(=O)N[C@H]2C(=O)N[C@H]3C(=O)N[C@H](C(=O)N[C@H](C(=O)O)c4cc(O)cc(O)c4-c4cc3ccc4O)[C@H](O)c3ccc(c(Cl)c3)Oc3cc2cc(c3O[C@@H]2O[C@H](CO)[C@@H](O)[C@H](O)[C@H]2O[C@H]2C[C@](C)(N)[C@H](O)[C@H](C)O2)Oc2ccc(cc2Cl)[C@H]1O [VANCOMYCIN] | > 175 µM | 350 µM (≈ 507 µg/mL) | 700 µM (≈ 1010 µg/mL) | 5 µM (≈ 7.25 µg/mL) | – | 0.7 µM (≈ 1.01 µg/mL) | – | – | – | – | –
11 | O=C(NNC(=S)Nc1ccc(OCc2ccccc2)cc1)c1ccccc1O | > 100 µM | > 100 µM | > 100 µM | > 100 µM | > 100 µM | > 100 µM | > 400 µM | 100 µM (≈ 39.3 µg/mL) | > 100 µM | > 100 µM | 990 nM
12 | O=C(NNC(=O)c1ccccc1O)Nc1ccc(Cl)c(Cl)c1 | – | – | – | – | – | – | > 100 µM | > 100 µM | – | – | –
13 | O=C(NNC(=S)Nc1ccccc1Cl)c1ccccc1O | 100 µM (≈ 32.2 µg/mL) | > 100 µM | > 100 µM | > 100 µM | > 100 µM | 100 µM (≈ 32.2 µg/mL) | 400 µM (≈ 129 µg/mL) | > 100 µM | 100 µM (≈ 32.2 µg/mL) | 100 µM (≈ 32.2 µg/mL) | 790 nM
14 | O=C(NNC(=S)Nc1ccc(Cl)c(Cl)c1)c1cc2ccccc2cc1O | > 100 µM | > 100 µM | > 100 µM | > 100 µM | > 100 µM | > 100 µM | > 400 µM | > 100 µM | > 100 µM | > 100 µM | 560 nM
15 | O=C(NNC(=S)Nc1cccc(F)c1)c1ccccc1 | – | – | – | – | – | – | > 400 µM | > 100 µM | – | – | –
16 | Nc1ccc(C(=O)NNC(=S)Nc2ccc(Cl)c(Cl)c2)c(O)c1 | > 100 µM | > 100 µM | > 100 µM | > 100 µM | > 100 µM | > 100 µM | > 400 µM | > 100 µM | > 100 µM | > 100 µM | 990 nM
17 | CC(=O)c1ccc(NC(=S)NNC(=O)c2ccccc2O)cc1 | > 100 µM | > 100 µM | > 100 µM | > 100 µM | > 100 µM | > 100 µM | 50 µM (≈ 16.5 µg/mL) | 25 µM (≈ 8.23 µg/mL) | > 100 µM | > 100 µM | 370 nM
18 | O=C(NNC(=S)Nc1ccc(F)cc1)c1ccccc1 | – | – | – | – | – | – | > 400 µM | > 100 µM | – | – | –
19 | O=C(NNC(=S)Nc1ccc(Cl)c(Cl)c1)c1ccc(O)cc1 | – | – | – | – | – | – | > 400 µM | > 100 µM | – | – | –
20 | O=C(NNC(=S)Nc1ccc(Cl)c(Cl)c1)c1ccccc1 | – | – | – | – | – | – | > 100 µM | > 100 µM | – | – | –
21 | O=C(NNC(=S)Nc1ccc([N+](=O)[O-])cc1)c1ccc(O)cc1 | – | – | – | – | – | – | > 400 µM | > 100 µM | – | – | –
22 | O=C(NNC(=S)Nc1cccnc1)c1ccccc1O | > 100 µM | > 100 µM | > 100 µM | > 100 µM | > 100 µM | > 100 µM | 50 µM (≈ 14.4 µg/mL) | 50 µM (≈ 14.4 µg/mL) | > 100 µM | > 100 µM | –
23 | O=C(O)c1cn(C2CC2)c2cc(N3CCNCC3)c(F)cc2c1=O [CIPROFLOXACIN] | – | – | – | – | – | – | – | – | – | 770 µM (≈ 255 µg/mL) | –
24 | CC(=O)NC[C@H]1CN(c2ccc(N3CCOCC3)c(F)c2)C(=O)O1 [LINEZOLID] | – | – | – | 3 µM (≈ 1.01 µg/mL) | – | 190 µM (≈ 64.1 µg/mL) | – | – | – | – | –
25 | O=C(NNC(=S)Nc1cccc(Cl)c1)c1ccccc1 | – | – | – | – | – | – | > 400 µM | > 100 µM | – | – | –
26 | O=C(NNC(=S)Nc1ccc(Cl)c(Cl)c1)c1cccc(O)c1 | – | – | – | – | – | – | > 400 µM | > 100 µM | – | – | –
27 | O=C(NNC(=S)NCCCN1CCOCC1)c1ccccc1O | > 100 µM | > 100 µM | > 100 µM | > 100 µM | > 100 µM | > 100 µM | > 400 µM | > 100 µM | > 100 µM | > 100 µM | –
28 | O=c1c2ccccc2ncn1NC(=S)Nc1ccccc1 | – | – | – | – | – | – | > 400 µM | > 100 µM | – | – | –
29 | O=C(NNC(=S)Nc1ccc(Cl)cc1)c1ccccc1 | – | – | – | – | – | – | > 400 µM | > 100 µM | – | – | –
